Measured values as given in ChEMBL document CHEMBL5291721, “A preclinical secondary pharmacology resource illuminates target-adverse drug reaction associations of marketed drugs” (Nat Commun, 2023).

What was measured:
[1] = biological target: T1, Alpha-1A adrenergic receptor (Homo sapiens, UniProt P35348); format: functional, cell-based
T1 sequence (P35348 whole entry): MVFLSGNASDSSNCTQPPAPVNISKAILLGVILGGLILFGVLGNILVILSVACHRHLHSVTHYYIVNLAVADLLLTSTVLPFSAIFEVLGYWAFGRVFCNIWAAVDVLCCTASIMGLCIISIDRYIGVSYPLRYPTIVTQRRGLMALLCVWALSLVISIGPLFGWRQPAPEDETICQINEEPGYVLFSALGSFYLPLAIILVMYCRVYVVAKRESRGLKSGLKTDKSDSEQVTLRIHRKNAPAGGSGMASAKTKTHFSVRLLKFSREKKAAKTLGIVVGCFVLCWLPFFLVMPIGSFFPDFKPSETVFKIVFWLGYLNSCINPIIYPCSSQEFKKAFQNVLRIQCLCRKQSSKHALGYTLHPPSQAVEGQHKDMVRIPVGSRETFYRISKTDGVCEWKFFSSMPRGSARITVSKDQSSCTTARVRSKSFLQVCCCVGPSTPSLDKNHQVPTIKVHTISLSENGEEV

[2] = biological target: T2, Muscarinic acetylcholine receptor M2 (Homo sapiens, UniProt P08172); format: functional, cell-based
T2 sequence (P08172 whole entry): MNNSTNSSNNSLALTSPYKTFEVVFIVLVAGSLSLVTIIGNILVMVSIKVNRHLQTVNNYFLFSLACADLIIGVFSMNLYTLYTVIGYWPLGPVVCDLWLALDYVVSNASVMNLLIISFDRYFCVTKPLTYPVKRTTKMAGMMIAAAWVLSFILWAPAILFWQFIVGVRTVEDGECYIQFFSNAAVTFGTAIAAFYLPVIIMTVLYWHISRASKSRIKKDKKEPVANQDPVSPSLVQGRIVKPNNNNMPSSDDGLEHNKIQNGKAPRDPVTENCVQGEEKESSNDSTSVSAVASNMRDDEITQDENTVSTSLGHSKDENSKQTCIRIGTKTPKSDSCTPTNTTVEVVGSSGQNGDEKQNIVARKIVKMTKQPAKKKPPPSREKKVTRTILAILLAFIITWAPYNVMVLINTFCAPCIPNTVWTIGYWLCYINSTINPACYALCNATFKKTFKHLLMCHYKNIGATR

[3] = biological target: Voltage-gated inwardly rectifying potassium channel KCNH2 (Homo sapiens, UniProt Q12809); format: functional; settings: read-out: AC50
[4] = biological target: T3, Equilibrative nucleoside transporter 1 (Homo sapiens, UniProt Q99808)
T3 sequence (Q99808 whole entry): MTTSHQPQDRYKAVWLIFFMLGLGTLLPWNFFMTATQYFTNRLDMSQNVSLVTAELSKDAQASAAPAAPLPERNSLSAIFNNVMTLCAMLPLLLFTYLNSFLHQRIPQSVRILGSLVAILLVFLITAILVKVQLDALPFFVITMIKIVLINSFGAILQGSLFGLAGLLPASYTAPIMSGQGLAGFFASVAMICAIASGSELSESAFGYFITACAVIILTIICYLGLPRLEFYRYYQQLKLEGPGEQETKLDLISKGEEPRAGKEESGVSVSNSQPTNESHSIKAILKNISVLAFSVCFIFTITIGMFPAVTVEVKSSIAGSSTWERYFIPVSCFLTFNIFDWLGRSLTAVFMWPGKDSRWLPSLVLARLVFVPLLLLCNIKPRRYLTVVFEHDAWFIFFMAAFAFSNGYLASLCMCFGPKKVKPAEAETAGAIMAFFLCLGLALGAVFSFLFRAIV

[5] = biological target: Sodium-dependent noradrenaline transporter (Homo sapiens, UniProt P23975)
[6] = biological target: T4, Amine oxidase [flavin-containing] A (Homo sapiens, UniProt P21397); format: functional
T4 sequence (P21397 whole entry): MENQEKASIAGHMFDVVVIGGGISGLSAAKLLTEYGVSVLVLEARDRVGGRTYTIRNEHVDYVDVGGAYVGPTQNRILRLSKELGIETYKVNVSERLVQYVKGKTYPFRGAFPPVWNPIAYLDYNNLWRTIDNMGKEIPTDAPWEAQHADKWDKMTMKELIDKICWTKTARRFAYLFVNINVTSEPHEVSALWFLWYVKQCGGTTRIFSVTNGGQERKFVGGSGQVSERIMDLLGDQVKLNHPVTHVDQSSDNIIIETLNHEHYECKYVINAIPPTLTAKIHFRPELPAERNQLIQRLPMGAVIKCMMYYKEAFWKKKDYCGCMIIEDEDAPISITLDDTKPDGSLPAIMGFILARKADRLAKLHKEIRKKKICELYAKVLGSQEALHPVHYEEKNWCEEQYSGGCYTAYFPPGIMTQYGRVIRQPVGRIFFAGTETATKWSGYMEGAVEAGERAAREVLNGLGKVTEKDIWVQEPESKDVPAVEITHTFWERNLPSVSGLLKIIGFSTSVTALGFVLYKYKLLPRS

[7] = biological target: Gamma-aminobutyric acid receptor subunit alpha-1 (Rattus norvegicus, UniProt P62813)
[8] = biological target: Kappa-type opioid receptor (Homo sapiens, UniProt P41145)
Note: assay procedure not described here.

Sequence of Sodium-dependent noradrenaline transporter (P23975 whole entry): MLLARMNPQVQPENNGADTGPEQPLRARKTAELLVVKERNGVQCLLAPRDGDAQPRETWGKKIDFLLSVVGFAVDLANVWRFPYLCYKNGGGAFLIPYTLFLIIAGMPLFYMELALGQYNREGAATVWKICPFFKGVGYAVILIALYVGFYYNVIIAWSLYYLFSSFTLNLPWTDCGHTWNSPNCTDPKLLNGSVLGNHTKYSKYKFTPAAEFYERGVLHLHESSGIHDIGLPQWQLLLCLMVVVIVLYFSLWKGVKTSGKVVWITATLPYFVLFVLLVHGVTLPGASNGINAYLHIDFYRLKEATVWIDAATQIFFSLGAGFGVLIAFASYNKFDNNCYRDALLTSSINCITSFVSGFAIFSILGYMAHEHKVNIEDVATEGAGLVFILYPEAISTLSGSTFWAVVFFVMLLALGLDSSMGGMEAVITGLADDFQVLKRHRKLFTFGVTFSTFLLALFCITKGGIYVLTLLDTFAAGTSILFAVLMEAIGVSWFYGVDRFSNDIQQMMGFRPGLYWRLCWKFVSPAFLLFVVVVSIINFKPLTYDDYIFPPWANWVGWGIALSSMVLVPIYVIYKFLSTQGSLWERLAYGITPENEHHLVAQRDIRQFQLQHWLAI
Sequence of Gamma-aminobutyric acid receptor subunit alpha-1 (P62813 whole entry): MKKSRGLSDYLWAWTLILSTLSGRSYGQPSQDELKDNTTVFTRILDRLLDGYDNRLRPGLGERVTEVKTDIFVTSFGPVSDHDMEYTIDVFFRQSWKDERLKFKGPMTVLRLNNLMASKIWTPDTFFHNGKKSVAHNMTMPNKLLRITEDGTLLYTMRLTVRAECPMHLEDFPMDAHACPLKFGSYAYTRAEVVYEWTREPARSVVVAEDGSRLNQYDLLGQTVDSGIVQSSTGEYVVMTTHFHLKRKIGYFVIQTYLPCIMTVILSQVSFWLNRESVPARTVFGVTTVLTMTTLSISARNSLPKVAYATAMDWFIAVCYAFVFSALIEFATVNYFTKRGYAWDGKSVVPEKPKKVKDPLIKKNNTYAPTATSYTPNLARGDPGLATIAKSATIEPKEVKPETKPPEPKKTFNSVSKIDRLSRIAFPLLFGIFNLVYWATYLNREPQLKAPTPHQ
Sequence of Kappa-type opioid receptor (P41145 whole entry): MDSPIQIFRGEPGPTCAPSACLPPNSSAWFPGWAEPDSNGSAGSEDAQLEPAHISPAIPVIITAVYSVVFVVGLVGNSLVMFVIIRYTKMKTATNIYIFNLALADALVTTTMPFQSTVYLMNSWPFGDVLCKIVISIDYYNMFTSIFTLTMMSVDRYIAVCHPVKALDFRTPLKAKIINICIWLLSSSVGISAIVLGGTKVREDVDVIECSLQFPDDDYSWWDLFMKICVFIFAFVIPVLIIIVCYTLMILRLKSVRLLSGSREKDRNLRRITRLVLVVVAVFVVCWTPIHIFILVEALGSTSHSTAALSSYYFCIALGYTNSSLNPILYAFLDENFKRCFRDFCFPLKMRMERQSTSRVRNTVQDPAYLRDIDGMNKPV
Sequence of Voltage-gated inwardly rectifying potassium channel KCNH2 (Q12809 whole entry): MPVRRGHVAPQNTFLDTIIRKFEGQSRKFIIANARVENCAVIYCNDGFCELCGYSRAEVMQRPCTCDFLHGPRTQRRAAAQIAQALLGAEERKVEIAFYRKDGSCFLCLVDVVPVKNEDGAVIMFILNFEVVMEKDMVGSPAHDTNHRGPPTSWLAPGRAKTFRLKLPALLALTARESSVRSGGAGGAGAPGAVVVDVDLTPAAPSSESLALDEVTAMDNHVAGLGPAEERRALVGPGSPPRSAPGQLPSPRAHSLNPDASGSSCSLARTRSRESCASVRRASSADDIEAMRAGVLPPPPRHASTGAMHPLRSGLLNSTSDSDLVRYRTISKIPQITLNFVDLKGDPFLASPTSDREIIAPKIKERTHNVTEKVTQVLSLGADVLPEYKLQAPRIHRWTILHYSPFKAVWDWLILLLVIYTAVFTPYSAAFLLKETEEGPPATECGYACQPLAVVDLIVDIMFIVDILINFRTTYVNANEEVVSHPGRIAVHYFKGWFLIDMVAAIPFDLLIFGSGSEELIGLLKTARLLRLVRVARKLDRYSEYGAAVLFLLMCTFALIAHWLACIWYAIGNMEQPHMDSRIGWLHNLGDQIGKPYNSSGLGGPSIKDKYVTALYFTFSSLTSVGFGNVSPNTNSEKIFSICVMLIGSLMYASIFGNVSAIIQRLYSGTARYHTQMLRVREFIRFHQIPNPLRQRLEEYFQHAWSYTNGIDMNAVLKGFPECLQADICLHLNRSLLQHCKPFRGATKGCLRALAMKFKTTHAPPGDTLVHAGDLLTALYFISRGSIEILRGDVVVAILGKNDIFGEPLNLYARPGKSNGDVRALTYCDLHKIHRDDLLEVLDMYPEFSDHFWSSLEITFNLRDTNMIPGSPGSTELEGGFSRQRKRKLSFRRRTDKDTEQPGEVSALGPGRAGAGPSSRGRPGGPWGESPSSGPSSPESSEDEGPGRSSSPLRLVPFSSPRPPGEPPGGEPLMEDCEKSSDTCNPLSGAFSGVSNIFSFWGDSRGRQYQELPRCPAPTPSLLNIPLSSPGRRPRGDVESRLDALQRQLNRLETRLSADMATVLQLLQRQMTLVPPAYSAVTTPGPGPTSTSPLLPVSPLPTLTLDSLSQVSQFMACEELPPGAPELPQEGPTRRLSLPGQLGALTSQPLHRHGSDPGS

| Structure (SMILES) | AC50 [1] | AC50 [2] | AC50 [3] | AC50 [4] | AC50 [5] | AC50 [6] | AC50 [7] | AC50 [8] |
| --- | --- | --- | --- | --- | --- | --- | --- | --- |
| CC(=N)N1CC[C@H](SC2=C(C(=O)O)N3C(=O)[C@H]([C@@H](C)O)[C@H]3C2)C1 | > 300 µM | > 300 µM | 15 µM | 60 µM | > 300 µM | > 300 µM | – | – |
| CC(/C=C1\SC(=S)N(CC(=O)O)C1=O)=C\c1ccccc1 | > 30 µM | > 30 µM | > 30 µM | 15 µM | 15 µM | > 30 µM | > 30 µM | 28 µM |
| CC1(C)S[C@@H]2[C@H](NC(=O)[C@H](N)c3ccc(O)cc3)C(=O)N2[C@H]1C(=O)O [AMOXICILLIN] | > 30 µM | > 30 µM | – | > 30 µM | > 30 µM | > 30 µM | > 30 µM | > 30 µM |
| O=C1CN2Cc3c(ccc(Cl)c3Cl)N=C2N1 [ANAGRELIDE] | > 30 µM | > 10 µM | > 30 µM | > 30 µM | > 30 µM | > 10 µM | > 10 µM | > 10 µM |
| CNCC[C@@H](Oc1ccccc1C)c1ccccc1 [ATOMOXETINE] | > 30 µM | – | – | – | – | > 30 µM | – | 1.8 µM |
| CCc1oc2ccccc2c1C(=O)c1cc(Br)c(O)c(Br)c1 [BENZBROMARONE] | > 30 µM | 14 µM | > 30 µM | > 30 µM | > 30 µM | > 30 µM | > 10 µM | > 10 µM |
| C=C(C)[C@@H]1CCC(C)=C[C@H]1c1c(O)cc(CCCCC)cc1O [CANNABIDIOL] | > 30 µM | 8 µM | – | > 30 µM | 17.3 µM | > 30 µM | – | – |
| CO/N=C(\C(=O)N[C@@H]1C(=O)N2C(C(=O)O)=C(COC(N)=O)CS[C@H]12)c1ccco1 [CEFUROXIME] | > 30 µM | > 30 µM | > 30 µM | > 30 µM | > 30 µM | > 30 µM | – | > 30 µM |
| [H]/N=C(\N/C(=N/[H])NCCCCCCNC(=N)NC(=N)Nc1ccc(Cl)cc1)Nc1ccc(Cl)cc1 [CHLORHEXIDINE] | > 30 µM | – | 16.3 µM | > 30 µM | 0.409 µM | > 10 µM | > 10 µM | 3.99 µM |
| Clc1cccc(Cl)c1N=C1NCCN1 [CLONIDINE] | – | > 10 µM | – | > 30 µM | > 10 µM | > 10 µM | > 10 µM | – |
| COC(=O)[C@H](c1ccccc1Cl)N1CCc2sccc2C1 [CLOPIDOGREL] | > 30 µM | > 30 µM | 26.1 µM | > 30 µM | > 30 µM | > 30 µM | > 30 µM | 14.9 µM |
| CN1C[C@H](C(=O)N[C@]2(C)O[C@@]3(O)[C@@H]4CCCN4C(=O)[C@H](Cc4ccccc4)N3C2=O)C[C@@H]2c3cccc4[nH]cc(c34)C[C@H]21 [DIHYDROERGOTAMINE] | 1.7 µM | > 10 µM | 10 µM | > 30 µM | > 30 µM | > 10 µM | > 10 µM | > 10 µM |
| CNCC[C@H](Oc1cccc2ccccc12)c1cccs1 [DULOXETINE] | – | > 10 µM | – | > 30 µM | – | > 10 µM | > 10 µM | – |
| CC1(C)O[C@@H]2C[C@H]3[C@@H]4C[C@H](F)C5=CC(=O)C=C[C@]5(C)[C@H]4[C@@H](O)C[C@]3(C)[C@]2(C(=O)CO)O1 [FLUNISOLIDE] | > 30 µM | > 30 µM | > 30 µM | > 30 µM | > 30 µM | > 30 µM | – | – |
| Nc1nc(O)c2ncn(COC(CO)CO)c2n1 [GANCICLOVIR] | > 30 µM | > 30 µM | > 30 µM | > 30 µM | > 30 µM | > 30 µM | > 30 µM | > 30 µM |
| C[C@H]1Oc2cc(cnc2N)-c2c(nn(C)c2C#N)CN(C)C(=O)c2ccc(F)cc21 [LORLATINIB] | > 30 µM | > 30 µM | > 30 µM | > 30 µM | > 30 µM | > 30 µM | – | – |
| Cc1cnc(NC(=O)C2=C(O)c3ccccc3S(=O)(=O)N2C)s1 [MELOXICAM] | > 30 µM | > 10 µM | > 30 µM | > 30 µM | > 10 µM | > 10 µM | > 10 µM | > 10 µM |
| CC[C@@H](CO)NC(=O)[C@@H]1C=C2c3cccc4[nH]cc(c34)C[C@H]2N(C)C1 [METHYLERGONOVINE] | 0.02 µM | > 30 µM | > 30 µM | – | > 30 µM | > 30 µM | > 30 µM | > 30 µM |
| CNCCC=C1c2ccccc2CCc2ccccc21 [NORTRIPTYLINE] | > 30 µM | > 30 µM | 2.59 µM | > 30 µM | – | > 30 µM | > 30 µM | – |
| O=C1NC(=O)C(c2ccccc2)(c2ccccc2)N1 [PHENYTOIN] | > 30 µM | > 30 µM | – | > 30 µM | > 30 µM | > 30 µM | > 10 µM | > 10 µM |
| CC(C)C[C@H](CN)CC(=O)O [PREGABALIN] | – | > 30 µM | > 30 µM | > 30 µM | > 30 µM | > 30 µM | > 30 µM | > 30 µM |
| CCOc1cc(CC(=O)N[C@@H](CC(C)C)c2ccccc2N2CCCCC2)ccc1C(=O)O [REPAGLINIDE] | 27 µM | > 30 µM | > 30 µM | > 30 µM | > 30 µM | > 30 µM | – | – |
| O=C(Nc1c(Cl)cncc1Cl)c1ccc(OC(F)F)c(OCC2CC2)c1 [ROFLUMILAST] | > 30 µM | > 30 µM | > 30 µM | – | > 30 µM | > 30 µM | > 30 µM | > 30 µM |
| CCCN(CCC)CCc1cccc2c1CC(=O)N2 [ROPINIROLE] | 6.93 µM | > 30 µM | – | > 30 µM | > 30 µM | > 30 µM | > 10 µM | – |
| CCCN(CCc1cccs1)[C@H]1CCc2c(O)cccc2C1 [ROTIGOTINE] | – | > 10 µM | 3.8 µM | 29 µM | 5.1 µM | > 30 µM | – | – |
| CC[C@H]1OC(=O)[C@H](C)[C@@H](O[C@H]2C[C@@](C)(OC)[C@@H](O)[C@H](C)O2)[C@H](C)[C@@H](O[C@@H]2O[C@H](C)C[C@H](N(C)C)[C@H]2O)[C@](C)(O)C[C@@H](C)/C(=N\OCOCCOC)[C@H](C)[C@@H](O)[C@]1(C)O [ROXITHROMYCIN] | > 30 µM | > 30 µM | > 30 µM | > 30 µM | > 30 µM | > 30 µM | – | – |
